The source of these data is patent US20070031511A1, “Method of treatment” (priority 2003, published 2007).

Like-named read-outs stand apart in the source and are kept apart here.

One experiment deals with IMGE-5 cells. The experiment can be described thus: IMGE-5 cell proliferation, [3H]-thymidine incorporation. In kind it is cell-based, mice. The conditions noted are these: IMGE cells, thymidine uptake; best fit at saturating concentration. The method, then:
In some cases cell proliferation was also measured by [^3H]-thymidine incorporation as described previously (Oiry et al., 2000). Briefly, IMGE-5 cells (10^5/well) were seeded in 24-well plates in medium containing 10% FBS and 1 unit/ml γ-interferon. On the next day cells were serum starved and shifted to 39° C. for 24 hr. Cells were then incubated with or without various compounds at 39° C. for 17 h in medium supplemented with 0.2% bovine serum albumin only. Cells were incubated with 0.5 μCi of [^3H] thymidine in the same medium at 39° C. for 4 h, washed twice with PBS (2.7 mM KCl, 142 mM NaCl, 1.5 mM KH2PO4, 10 mM Na2HPO4, pH 6.95) containing 0.2% bovine serum albumin and incubated at 4° C. for 30 min with 5% trichloroacetic acid. Finally cells were washed with 95% ethanol to remove unincorporated [^3H] thymidine, and lysed with 1 M NaOH. Lysates were transferred to counting vials and neutralized with 1M HCl. The radioactivity of each lysate was counted in a β-counter after the addition of 10 ml of Pico-fluor 40 solution (Packard, Meriden, Conn.).
In some experiments IMGE-5 cells were seeded in a 96-well plate at a density of 3-5×10^3 cells/well in.DMEM containing 10% FBS, and cultured at 33° C.. On the following day, the cells were serum-starved at 33° C. for 24 h. […] The cells were cultured at 39° C. for 24 h, and then harvested using a NUNC cell harvester. The amount of ^3H-thymidine incorporated through DNA synthesis was detected with a β-counter (Packard, Meriden, Conn.). […]
On the technique in general: Dividing cells build labelled thymidine or BrdU into new DNA.

For experiment [1], the system named is IMGE-5 gastric epithelial cells. The experiment in a line: Ggly-stimulated inositol phosphate production in IMGE-5 cells. In kind it is cell-based, mice. Here is the method:
Intracellular inositol phosphate production was determined as described previously (Qian et al, 1993). IMGE-5 cells (10^5 cells/ml) were plated in 24-multiwell culture plates in DMEM supplemented with 10% FBS, 200 IU/ml penicillin and 200 μg/ml streptomycin. 24 h later, cells were incubated with DMEM supplemented with antibiotics and Myo-[2-^3H]inositol (2.5 μCi/well) and shifted to 39° C. for 16 h. Cells were then washed with pre-warmed DMEM and incubated (20-30 minutes, 37° C.) with DMEM supplemented with 20 mM LiCl. Loaded cells were then washed in 1 ml of IP buffer (135 mM NaCl, 20 mM N-(2-hydroxyethyl)piperazine-N′-(2-ethanesulfonic acid), 2 mM CaCl2, 1.2 mM MgSO4, 1 mM ethylene glycol-bis(2-aminoethylether)-N,N,N′,N′-tetraacetic acid, 10 mM LiCl, and 0.5% bovine serum albumin, pH 7.45) and incubated with or without agonist in a final volume of 0.5 ml of IP buffer. After 1-h incubation at 37° C., the reaction was stopped by removing the incubation medium and adding 1 ml of a mixture of ethanol/HCl (2000:1; v/v). One ml of each aliquot was applied to a column containing 1.6 ml of a 1:2 (v/v) Dowex AG-1-X8 anion exchange resin in distilled water. […] The radioactivity of each eluate was counted after addition of Complete phase combining system solution (Amersham, UK). […]
Ggly-stimulated inositol phosphate production was measured in HT29 human colorectal carcinoma cells.

The conditions of experiment [2]: read-out: Kd for binding of ferric ions to Ggly; pH 4.0; taken from Baldwin et al. (2001); cited from earlier work.
Experiment [3] is described as follows: Quenching of gastrin tryptophan fluorescence by bismuth ions. Format: binding. The settings on record: pH 4.0. An excerpt:
Values from the indicated number of independent experiments were combined to obtain the mean values (±S.E.) presented above.

For experiment [4], the target named is T1, CCK-2 receptor (Homo sapiens, UniProt P32239).
T1 sequence (P32239 1-447): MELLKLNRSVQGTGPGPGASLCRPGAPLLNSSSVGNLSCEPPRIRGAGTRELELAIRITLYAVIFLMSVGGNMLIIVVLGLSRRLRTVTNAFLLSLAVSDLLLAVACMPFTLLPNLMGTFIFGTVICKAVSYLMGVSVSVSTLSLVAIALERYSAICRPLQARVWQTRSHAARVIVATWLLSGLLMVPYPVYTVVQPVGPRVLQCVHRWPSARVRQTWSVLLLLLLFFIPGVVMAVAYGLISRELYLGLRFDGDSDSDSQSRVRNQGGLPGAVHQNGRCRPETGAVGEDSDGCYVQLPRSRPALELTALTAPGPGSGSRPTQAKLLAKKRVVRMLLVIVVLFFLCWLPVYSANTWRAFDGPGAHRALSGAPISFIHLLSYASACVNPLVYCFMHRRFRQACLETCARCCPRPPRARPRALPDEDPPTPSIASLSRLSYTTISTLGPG
The experiment can be described thus: [125I]-BH-CCK8 displacement, CCK-2 receptor on Jurkat cells. Format: binding. The method, then: (§1) Non-specific binding was evaluated with […] of unlabelled CCK8. Incubation was stopped by adding 2 ml of ice-cold PBS containing 2% bovine serum albumin. After centrifugation, supernatants were removed and the radioactivity bound to the cell membranes was measured in a γ-counter (LKB, Wallac, Finland).

In experiment [5] the target is T1, CCK-2 receptor. The experiment in a line: [125I]-BH-CCK8 displacement, CCK-2 receptor on transiently transfected COS-7 cells. Format: binding. More on the design: COS-7 cells transiently transfected with CCK-2 receptor cDNA; expressed in transfected cells; host or cells: COS-7. Here is the method: as §1
The lines of best fit shown in FIG. 21 were obtained by nonlinear regression to a single site model with the program Sigmaplot.

For experiment [6], the target named is T1, CCK-2 receptor. The experiment can be described thus: Gamide-stimulated proliferation in CHO cells stably transfected with the CCK-2 receptor. In kind it is cell-based. More on the design: expressed in transfected cells; host or cells: CHO.
The test system of another experiment is rectal mucosa. The experiment in a line: Proliferation in the rectal mucosa of rectally defunctioned rats (metaphase-arrested cells). Format: in vivo. The conditions noted are these: colloidal bismuth subcitrate 135 mg/kg/12 hours oral gavage 5 days per week, 4 weeks; Ggly 2.5 nmol/kg/hr. Here is the method: DFO (400 mg/kg) was administered intraperitoneally thrice weekly, and bismuth ions were administered as colloidal bismuth subcitrate (135 mg/kg/12 hours) by oral gavage 5 days per week. After 4 weeks, the rats were injected with vincristine to arrest cycling cells in metaphase, and sacrificed 3 hrs later. Crypt heights in the rectal mucosa, and the number of metaphase arrested cells per crypt, were then determined microscopically.

Setting [7] is: binding in the absence of competitor, fitted, mean ± S.E.
[8] abbreviates: presence and absence of 1 μM DFO.
Setting [9] is: single experiment, presence and absence of 1 μM DFO.

“Ggly: glycine-extended gastrin17, 18 amino acid non-amidated gastrin, SEQ ID NO:4, residues 55-72 of progastrin (XGPWLEEEEEAYGWMDFG; (1)..(1) pyroglutamate; listed as Homo sapiens)”: the “S (%), maximum % stimulation” value in the experiment on IMGE-5 cells was 37.3%. The “Ggly stimulation of inositol phosphate production compared to the control” value in experiment [1] was 110%. Also, in experiment [2], the Kd was 0.6 µM.
Consider `CSCC[C@H](NC(=O)[C@H](Cc1c[nH]c2ccccc12)NC(=O)CNC(=O)[C@H](Cc1ccc(O)cc1)NC(=O)[C@H](C)NC(=O)[C@H](CCC(=O)O)NC(=O)[C@H](CCC(=O)O)NC(=O)[C@H](CCC(=O)O)NC(=O)[C@H](CCC(=O)O)NC(=O)[C@H](CCC(=O)O)NC(=O)[C@H](CC(C)C)NC(=O)[C@H](Cc1c[nH]c2ccccc12)NC(=O)[C@@H]1CCCN1C(=O)CNC(=O)[C@@H]1CCC(=O)N1)C(=O)N[C@@H](CC(=O)O)C(=O)N[C@@H](Cc1ccccc1)C(N)=O` [Gamide], for which the Kd in experiment [3] (single experiment, two independent sites with identical affinities, read-out: Kd for bismuth ions, line of best fit of FIG. 11) came to 8.6 ± 1.2 µM; in experiment [3] (two identical independent binding sites, mean ± S.E. of 5 experiments, read-out: Bismuth Kd), 8.2 ± 0.8 µM. The entries for the “% Maximum Binding (Jurkat)” value at CCK-2 receptor [4] (setting [7]) and on CCK-2 receptor [4] (setting [8]) were 100.0 ± 3.1% and 99.0 ± 0.4%, respectively. Moreover, the “Ordinate intercept, FIG. 24B” value at CCK-2 receptor [4] (setting [9]) is 99.6%. In addition, the “% Maximum Binding (COS-7)” value at CCK-2 receptor [5] (setting [7]) turned out to be 94.2 ± 2.4%; at CCK-2 receptor [5] (setting [8]) it was 81.1 ± 1.7%. Besides, at CCK-2 receptor [5] (single experiment), the “Predicted ordinate intercept, FIG. 21” value was 86.1%. The “Ordinate intercept, FIG. 24A” value at CCK-2 receptor [5] (setting [9]) was determined as 81.1%.
With `[Bi+3]` [bismuth ions], the “Effect on Gamide-stimulated proliferation” value at CCK-2 receptor [6] is recorded as “did not significantly inhibit”. The “Effect on stimulation of proliferation of the rectal mucosa by Ggly” value in the experiment on rectal mucosa was “completely abolished”. Moreover, the “Effect on binding of CCK8 to the CCK-2 receptor” value on CCK-2 receptor [5] (2, 8 or 32 moles/mole, transfected COS-7 cells (FIG. 16)) is “no effect”.

As usually defined, the Kd is a measure of binding affinity in units of concentration.
